From ChEMBL document CHEMBL3885881, “DrugMatrix”

Species on record: Rattus norvegicus
Test: DrugMatrix - Regimen: Daily Repeat
Type: toxicity, organism-based, Sprague-Dawley
Set-up: regimen Daily Repeat, gender Male, age 6-8 weeks
Settings: in vivo, po, route oral GAVAGE, vehicle 100 % WATER; for BASOPHIL / EOSINOPHIL / ERYTHROCYTE COUNT / HEMATOCRIT / HEMOGLOBIN / LEUKOCYTE COUNT / LYMPHOCYTE / MEAN CORPUSCULAR HEMOGLOBIN / MEAN CORPUSCULAR HEMOGLOBIN CONCENTRATION / MONOCYTE / NEUTROPHIL / PLATELET COUNT: tissue Blood; for ALANINE AMINOTRANSFERASE / ALBUMIN / ALKALINE PHOSPHATASE / ASPARTATE AMINOTRANSFERASE / BLOOD UREA NITROGEN / CHLORIDE / CHOLESTEROL / CREATINE PHOSPHOKINASE / CREATININE / GLUCOSE / PHOSPHORUS / POTASSIUM / SODIUM / TOTAL BILIRUBIN / TOTAL PROTEIN: tissue Plasma
[1] = 0 mg/kg, 72 h, dose level Control, time 3 day
[2] = 0 mg/kg, 120 h, dose level Control, time 5 day
[3] = 755 mg/kg, 72 h, dose level High, time 3 day
[4] = 755 mg/kg, 120 h, dose level High, time 5 day

CCN(CC)CCNC(=O)c1ccc(N)cc1 [PROCAINAMIDE] was tested, and the BASOPHIL [1] was 0%, the EOSINOPHIL [1] was 0.33% and the “ERYTHROCYTE COUNT” value [1] was 5.88 x10E6/uL. For the same compound, the HEMATOCRIT [1] was 36.47%, the HEMOGLOBIN [1] was 14.2 G/DL and the “LEUKOCYTE COUNT” value [1] was 9.28 x10E3/uL. The LYMPHOCYTE [1] was 82.33%, the “MEAN CORPUSCULAR HEMOGLOBIN” value [1] was 24.2 pg and the “MEAN CORPUSCULAR HEMOGLOBIN CONCENTRATION” value [1] was 38.97 G/DL. The MONOCYTE [1] was 2.33%, the NEUTROPHIL [1] was 15% and the “PLATELET COUNT” value [1] was 1114 x10E3/uL. For the same compound, the “ALANINE AMINOTRANSFERASE” value [1] was 41.17 u/L, the ALBUMIN [1] was 3.95 G/DL and the “ALKALINE PHOSPHATASE” value [1] was 382.5 u/L. The “ASPARTATE AMINOTRANSFERASE” value [1] was 67.33 u/L, the “BLOOD UREA NITROGEN” value [1] was 15.5 mg/dL and the CHLORIDE [1] was 106.33 MEQ/L. The CHOLESTEROL [1] was 77.67 mg/dL, the “CREATINE PHOSPHOKINASE” value [1] was 123.33 u/L and the CREATININE [1] was 0.62 mg/dL. It also gave a GLUCOSE [1] of 185.67 mg/dL, a PHOSPHORUS [1] of 10.2 mg/dL and a POTASSIUM [1] of 6.72 MEQ/L. For the same compound, the SODIUM [1] was 149.67 MEQ/L, the “TOTAL BILIRUBIN” value [1] was 0.97 mg/dL and the “TOTAL PROTEIN” value [1] was 6.58 G/DL. For the same compound, the BASOPHIL [2] was 0%, the EOSINOPHIL [2] was 0% and the “ERYTHROCYTE COUNT” value [2] was 5.99 x10E6/uL. For the same compound, the HEMATOCRIT [2] was 36.88%, the HEMOGLOBIN [2] was 14.77 G/DL and the “LEUKOCYTE COUNT” value [2] was 11.35 x10E3/uL. The LYMPHOCYTE [2] was 85.5%, the “MEAN CORPUSCULAR HEMOGLOBIN” value [2] was 24.7 pg and the “MEAN CORPUSCULAR HEMOGLOBIN CONCENTRATION” value [2] was 40.07 G/DL. The MONOCYTE [2] was 1.83%, the NEUTROPHIL [2] was 12.67% and the “PLATELET COUNT” value [2] was 979.67 x10E3/uL. For the same compound, the “ALANINE AMINOTRANSFERASE” value [2] was 36.5 u/L, the ALBUMIN [2] was 3.63 G/DL and the “ALKALINE PHOSPHATASE” value [2] was 303.5 u/L. The “ASPARTATE AMINOTRANSFERASE” value [2] was 61 u/L, the “BLOOD UREA NITROGEN” value [2] was 16.5 mg/dL and the CHLORIDE [2] was 106.17 MEQ/L. The “CREATINE PHOSPHOKINASE” value [2] was 154.83 u/L, the CREATININE [2] was 0.6 mg/dL and the GLUCOSE [2] was 201 mg/dL. The PHOSPHORUS [2] was 10.1 mg/dL, the POTASSIUM [2] was 6.85 MEQ/L and the SODIUM [2] was 148.17 MEQ/L. The “TOTAL BILIRUBIN” value [2] was 0.58 mg/dL, the “TOTAL PROTEIN” value [2] was 5.9 G/DL and the BASOPHIL [3] was 0%. The EOSINOPHIL [3] was 0%, the “ERYTHROCYTE COUNT” value [3] was 5.39 x10E6/uL and the HEMATOCRIT [3] was 32.67%. The HEMOGLOBIN [3] was 13.03 G/DL, the “LEUKOCYTE COUNT” value [3] was 10.2 x10E3/uL and the LYMPHOCYTE [3] was 85.67%. The “MEAN CORPUSCULAR HEMOGLOBIN” value [3] was 24.17 pg, the “MEAN CORPUSCULAR HEMOGLOBIN CONCENTRATION” value [3] was 39.9 G/DL and the MONOCYTE [3] was 1.33%. For the same compound, the NEUTROPHIL [3] was 13%, the “PLATELET COUNT” value [3] was 1063.33 x10E3/uL and the “ALANINE AMINOTRANSFERASE” value [3] was 43 u/L. For the same compound, the ALBUMIN [3] was 3.9 G/DL, the “ALKALINE PHOSPHATASE” value [3] was 441.33 u/L and the “ASPARTATE AMINOTRANSFERASE” value [3] was 61 u/L. For the same compound, the “BLOOD UREA NITROGEN” value [3] was 16 mg/dL, the CHLORIDE [3] was 105.33 MEQ/L and the CHOLESTEROL [3] was 74.33 mg/dL. The “CREATINE PHOSPHOKINASE” value [3] was 142.67 u/L, the CREATININE [3] was 0.57 mg/dL and the GLUCOSE [3] was 176.33 mg/dL. It also gave a PHOSPHORUS [3] of 11.97 mg/dL, a POTASSIUM [3] of 6.97 MEQ/L and an SODIUM [3] of 150.67 MEQ/L. For the same compound, the “TOTAL BILIRUBIN” value [3] was 0.6 mg/dL, the “TOTAL PROTEIN” value [3] was 6.5 G/DL and the BASOPHIL [4] was 0%. For the same compound, the EOSINOPHIL [4] was 0%, the “ERYTHROCYTE COUNT” value [4] was 5.45 x10E6/uL and the HEMATOCRIT [4] was 33.47%. For the same compound, the HEMOGLOBIN [4] was 14.6 G/DL, the “LEUKOCYTE COUNT” value [4] was 13.8 x10E3/uL and the LYMPHOCYTE [4] was 87.67%. For the same compound, the “MEAN CORPUSCULAR HEMOGLOBIN” value [4] was 26.87 pg, the “MEAN CORPUSCULAR HEMOGLOBIN CONCENTRATION” value [4] was 43.7 G/DL and the MONOCYTE [4] was 1.33%. The NEUTROPHIL [4] was 11%, the “PLATELET COUNT” value [4] was 830.33 x10E3/uL and the “ALANINE AMINOTRANSFERASE” value [4] was 40.67 u/L. The ALBUMIN [4] was 3.73 G/DL, the “ALKALINE PHOSPHATASE” value [4] was 378.67 u/L and the “ASPARTATE AMINOTRANSFERASE” value [4] was 63 u/L. For the same compound, the “BLOOD UREA NITROGEN” value [4] was 14.33 mg/dL, the CHLORIDE [4] was 107.33 MEQ/L and the CHOLESTEROL [4] was 74 mg/dL. The “CREATINE PHOSPHOKINASE” value [4] was 117.33 u/L, the CREATININE [4] was 0.67 mg/dL and the GLUCOSE [4] was 180 mg/dL. For the same compound, the PHOSPHORUS [4] was 10.5 mg/dL, the POTASSIUM [4] was 6.57 MEQ/L and the SODIUM [4] was 152.33 MEQ/L. The “TOTAL BILIRUBIN” value [4] was 0.53 mg/dL and the “TOTAL PROTEIN” value [4] was 6.03 G/DL.
